The test system of experiment [1] is BxPC-3 xenografts. As to the kind of experiment: Oral devimistat in BxPC3 pancreatic cancer xenografts. The experiment is classed as in vivo, mice. The note with it: weekly for 4 weeks. How it is done: An acclimation period of 7 days was allowed between the arrival of the animal at the study site before tumor inoculation and experimentation. Mice were inoculated subcutaneously (SC) in the right flank with 2×10^6 human H460 NSCLC or BxPC3 pancreatic cancer cells that were suspended in 0.1 mL of Dulbeco's Phosphate Buffered Salt (PBS) solution using a 1 cc syringe with a 27⅝ gauge needle. Tumor dimensions (length and width) were measured daily before, during and after treatment (using Vernier calipers) and the tumor volume was calculated using the prolate ellipsoid formula: (length×width^2)/2. Treatment with test or control articles began 8 days post tumor cell implantation when the tumor was approximately 300 mm^3.
A similar study was conducted in CD-1 nude mice (n=9) inoculated with 2×10^6 BxPC-3 cells. The study was initiated when tumors reached an average size of 150 mm^3 (day 0) and devimistat was administered at an oral dose of […] for 4 weeks. A comparator arm (n=9) was conducted with IP treatment at a weekly dose of 25 mg/kg.

The test system of experiment [2] is human H460 NSCLC xenografts. Kind of experiment: Oral devimistat in H460 NSCLC xenografts. The experiment is classed as in vivo, mice. Conditions: oral 100 mg/kg on days 8, 15, 22, 29; vs 5% dextrose or untreated. The procedure:
Human H460 NSCLC cells were obtained from American Type Cell Culture (ATCC) (catalog no. HTB-177, Manassas, VA). These cells tested negative for viral contamination using the Mouse Antibody Production (MAP) test, performed by Charles River Labs Molecular Division, upon the receipt of the tumor cells from ATCC. The tumor cells were maintained at 37° C. in a humidified 5% CO2 atmosphere in T225 tissue culture flasks containing 50 mL of Roswell Park Memorial Institute (RPMI)-1640 solution with 10% Fetal Bovine Serum (FBS) and 2 mM L-glutamine. Cells were split at a ratio of 1:10 every 2-3 days by trypsinization and resuspended in fresh medium in a new flask. Cells were harvested for experiments in the same way at 70-90% confluency.
CD1-Nu/Nu female mice, ˜4-6 weeks old were obtained from Charles River Laboratories. Mice were housed 5 to a cage in a micro-isolator room in the Department of Animal Laboratory Research of New York State University (SUNY) at Stony Brook. Light-dark cycles were 12 h each daily, with light from 7 a.m. to 7 p.m. […]
An acclimation period of 7 days was allowed between the arrival of the animal at the study site before tumor inoculation and experimentation. […] Tumor dimensions (length and width) were measured daily before, during and after treatment (using Vernier calipers) and the tumor volume was calculated using the prolate ellipsoid formula: (length×width^2)/2. […]

Experiment [3] concerns AsPC1 cells. As to the kind of experiment: Glycogen content in AsPC1 cells. The class given is cell-based, human. The note with it: AsPC1, CBS2, 3 hours. How it is done:
Glycogen was quantified using the Glycogen Assay Kit II (colorimetric) from AbCam (ab169558) according to manufacturer's instructions. Briefly, approximately 2×10^6 cells were washed with ice-cold PBS and collected via scraping in 300 μL ice-cold ddH2O. Cells were immediately sonicated on ice for 5× […] pulses with a probe sonicator (Misonix Inc, model XL2000), then heated to 80° C. for 10 min. Samples were stored O/N at −20° C., then thawed, centrifuged at 12,000×g for 10 min and the supernatants collected for glycogen hydrolysis and quantification according to manufacturer's instructions.
C. […] Cells were treated in CBS2 for 3 hours with 30 μM devimistat or mock treated (FIG. 2C, left), or treated for 3 hours with the indicated devimistat doses (FIG. 2C, right).
D. Effects of anti-metabolism agents on glycogen consumption in PANC1 and AsPC1 cells. […] Glycogen content was measured in cell lysates (see Methods, above) and the results are presented in the left and middle graphs in FIG. 3D (note the different vertical scales for PANC1 and AsPC1 plots).

Experiment [4] relates to BxPC3, PANC1, AsPC1 and H460 cells. As to the kind of experiment: 3H-2-deoxyglucose uptake by tumor cell lines. Conditions: 240 μM devimistat, complete RPMI, two hours. The experiment is classed as cell-based, human. How it is done: Cells were treated in complete RPMI with devimistat (240 μM) for a total of 2 hours, with a pulse of 1,2-^3H 2-deoxyglucose at the end of this treatment for the times indicated in Example 1D and FIG. 1D. Cells were harvested, washed, and counted to asses uptake. More particularly, seeding, drug treatment, and 2DG uptake were all performed in RPMI medium supplemented with 10% FBS for BXPC3, H460 and PANC1 cells and DMEM+10% FBS for AsPC1. All treatments were done in triplicate. BxPC3 cells were seeded at 500,000 cells per 35-mm dish; H460, PANC1, and AsPC1 cells were plated in 6 well plates at 300,000 cells per well for PANC1 and at 500,000 cells per well for AsPC1 and H460. […]
At the end of the 2 hour drug treatment, plates were placed on ice, medium removed and plates were washed three times with ice cold medium without FBS. […] Lysates were transferred into scintillation vials containing 3 mL of scintillation cocktail and counted.
D. Pulse analysis of ^3H-2-deoxyglucose (2DG) uptake by tumor cell lines. ˜8×10^5 cells were treated with 240 μM devimistat or solvent control in complete RPMI for two hours and pulse labeled by addition of 0.5 μCi of ^3H-2DG for the final 0.25 or 1 hour of treatment as indicated in FIG. 1D. Cells were washed in ice-cold RPMI without serum, lysed, and counted (see Methods, above).

As to `O=C(O)CCCCC(CCSCc1ccccc1)SCc1ccccc1` (stereo not shown) [devimistat, 6,8-bis(benzylsulfanyl)octanoic acid], the “tumor growth in BxPC3 xenografts” value in experiment [1] is recorded as “especially pronounced”. In addition, in experiment [2], the “tumor growth in H460 NSCLC xenografts” value was “grew much more slowly”. Also, the glycogen consumption result in experiment [3] was “accelerated”. Also, the “3H-2-deoxyglucose (glucose) uptake” value in experiment [4] is “accelerated glucose uptake”.
